Experimental findings from patent US20040063790A1, “Methods for inhibition of angiogenesis” (The Scripps Research Institute, priority 1996, published 2004) are described below.

Series [1] deals with bFGF-induced angiogenesis. Briefly: CAM assay, growth factor-induced angiogenesis, intravenous application. The format is in vivo, chick. Conditions: for reducing the number of branch points of new blood vessels: FIG. 26, in decreasing order of inhibition 14, 10, 9, 12, compared to bFGF control and compound 7; for inhibition of formation of new blood vessels induced by bFGF: 250 μg/ml, 18 hours after bFGF treatment, FIG. 12; for anti-angiogenic properties (branch points): FIG. 27, 100 μg/embryo, compared to bFGF control and compound 16. On the procedure: J. Pathol., 79:597 (1975). CAMs were prepared from chick embryos for subsequent induction of angiogenesis and inhibition thereof as described in Examples 4 and 5, respectively. Ten day old chick embryos were obtained from McIntyre Poultry (Lakeside, Calif.) and incubated at 37° C. with 60% humidity. A small hole was made through the shell at the end of the egg directly over the air sac with the use of a small crafts drill (Dremel, Division of Emerson Electric Co. Racine Wis.). A second hole was drilled on the broad side of the egg in a region devoid of embryonic blood vessels determined previously by candling the egg. […] A 1.0 centimeter (cm)×1.0 cm square window was cut through the shell over the dropped CAM with the use of a small model grinding wheel (Dremel). The small window allowed direct access to the underlying CAM.
Angiogenesis was induced by placing a 5 millimeter (mm)×5 mm Whatman filter disk (Whatman Filter paper No.1) saturated with Hanks Balanced Salt Solution (HBSS, GIBCO, Grand Island, N.Y.) or HBSS containing 150 nanograms/milliliter (ng/ml) recombinant basic fibroblast growth factor (bFGF) (Genzyme, Cambridge, Mass.) on the CAM of a 10-day chick embryo in a region devoid of blood vessels and the windows were latter sealed with tape. In other assays, 125 ng/ml bFGF was also effective at inducing blood vessel growth. For assays where inhibition of angiogenesis ws evaluated with intravenous injections of antagonists, angiogenesis was first induced with 1-2 μg/ml bFGF in fibroblast growth medium. Angiogenesis was monitored by photomicroscopy after 72 hours. CAMs were snap frozen, and 6 um cryostat sections were fixed with acetone and stained by immunofluorescence as described in Example 3C with 10 μg/ml of either anti-β1 monoclonal antibody CSAT or LM609.
For CAM preparations in which angiogenesis was induced with 1-2 μg/ml bFGF as previously described, synthetic peptides 69601 (control) and 66203 (SEQ ID NO: 5) were separately intravenously injected into CAM preparations 18 hours after bFGF induction of angiogenesis. The preparations were maintained for an additional 36-40 hours after which time the number of branch points were determined as previously described.
In other assays, peptide 85189 (SEQ ID NO: 15) was evaluated for inhibiting bFGF-induced angiogenesis in the CAM assay over a dosage range of 10 μg/embryo to 300 μg/embryo. The assay was performed as previously described.
In still further assays, peptide 85189 was compared to peptides 69601 and 66203 for anti-angiogenesis activity. The assay was performed as described above with the exception that 50 μg peptide were used.
The effectiveness of the different salt formulations of peptide 85189 was also evaluated in similar bFGF-induced CAM assays. The peptides were used at 100 μg/embryo. […] Untreated CAMs, labeled as “no cytokine” had approximately […] as many branch points as that seen with bFGF treatment, respectively 70 versus 190.
With the above-described protocol, the effect of MMP-2 fusion proteins, CTMMP-2(2-4), also referred to as CTMMP-2(445-467) and CTMMP-2(10-1), also referred to as CTMMP-2(274-637) was also evaluated. The assay was performed as previously described with the exception that 50 μg of fusion protein was administered to the bFGF-treated embryos. The effect of fusion protein treatment was assessed at 24 hours, 48 hours and 72 hours.
The 10 day old CAM preparation was used as previously described in Example 5A. Twenty-four hours after bFGF-induced angiogenesis was initiated, the organic peptidomimetics referred to as compounds 16 (81218), 17 (87292) and 18 (87293) were separately intravenously injected into the CAM preparation in a volume of 100 μl at a concentration of 1 mg/ml (100 μg/embryo) in 20% tetraglycol-PBS at pH 7.0. In parallel assays, compounds 7 (96112), 9 (99799), 10 (96229), 12 (112854) and 14 (96113) were similarly evaluated. […]

The target of a further series is T1, αvβ3 (Homo sapiens, UniProt P05106+P06756).
T1 construct: selected purified integrins were separately immobilized in Titertek microtiter wells
Nature of the series: Ligand-receptor binding assay, immobilized αvβ3. The note with it: for preference of inhibition of fibrinogen binding, αvβ3 versus αIIbβ3: comparison of half-maximal concentrations of Table 2. The text has this:
(§1) Herein described is a method of identifying antagonists in a ligand-receptor binding assay in which the receptor is immobilized to a solid support and the ligand and antagonist are soluble. Also described is a ligand-receptor binding assay in which the ligand is immobilized to a solid support and the receptor and antagonists are soluble.
(§2) Briefly, selected purified integrins were separately immobilized in Titertek microtiter wells at a coating concentration of 50 nanograms (ng) per well. The purification of the receptors used in the ligand-receptor binding assays are well known in the art and are readily obtainable with methods familiar to one of ordinary skill in the art. After incubation for 18 hours at 4° C., nonspecific binding sites on the plate were blocked with 10 milligrams/milliliter (mg/ml) of bovine serum albumin (BSA) in Tris-buffered saline. […] Radiolabeled ligands were used at concentrations of 1 nM and binding was challenged separately with unlabeled synthetic peptides.
(§3) Following a three hour incubation, free ligand was removed by washing and bound ligand was detected by gamma counting. […] The IC50 data in micromoles (IC50 μM) are expressed as the average of duplicate data points±the standard deviation as shown in Table 2.

The next series deals with T2, αIIbβ3 (Homo sapiens, UniProt P05106+P08514).
T2 construct: selected purified integrins were separately immobilized in Titertek microtiter wells
Nature of the series: Ligand-receptor binding assay, immobilized αIIbβ3.
Description: as §1, §2, §3

Setting [2] is: radiolabeled fibrinogen, average of duplicate data points ± standard deviation, read-out: αvβ3 (IC50 μM).
The mark [3] stands for this setting: radiolabeled fibrinogen, average of duplicate data points ± standard deviation, read-out: αIIbβ3 (IC50 μM).

Where two headings read alike, the source gives them in different places. Where a SMILES comes first, the peptide text is derived from it. [ ]: non-standard residue; d: D form.

T1 sequence (P06756 31-889 limits assumed): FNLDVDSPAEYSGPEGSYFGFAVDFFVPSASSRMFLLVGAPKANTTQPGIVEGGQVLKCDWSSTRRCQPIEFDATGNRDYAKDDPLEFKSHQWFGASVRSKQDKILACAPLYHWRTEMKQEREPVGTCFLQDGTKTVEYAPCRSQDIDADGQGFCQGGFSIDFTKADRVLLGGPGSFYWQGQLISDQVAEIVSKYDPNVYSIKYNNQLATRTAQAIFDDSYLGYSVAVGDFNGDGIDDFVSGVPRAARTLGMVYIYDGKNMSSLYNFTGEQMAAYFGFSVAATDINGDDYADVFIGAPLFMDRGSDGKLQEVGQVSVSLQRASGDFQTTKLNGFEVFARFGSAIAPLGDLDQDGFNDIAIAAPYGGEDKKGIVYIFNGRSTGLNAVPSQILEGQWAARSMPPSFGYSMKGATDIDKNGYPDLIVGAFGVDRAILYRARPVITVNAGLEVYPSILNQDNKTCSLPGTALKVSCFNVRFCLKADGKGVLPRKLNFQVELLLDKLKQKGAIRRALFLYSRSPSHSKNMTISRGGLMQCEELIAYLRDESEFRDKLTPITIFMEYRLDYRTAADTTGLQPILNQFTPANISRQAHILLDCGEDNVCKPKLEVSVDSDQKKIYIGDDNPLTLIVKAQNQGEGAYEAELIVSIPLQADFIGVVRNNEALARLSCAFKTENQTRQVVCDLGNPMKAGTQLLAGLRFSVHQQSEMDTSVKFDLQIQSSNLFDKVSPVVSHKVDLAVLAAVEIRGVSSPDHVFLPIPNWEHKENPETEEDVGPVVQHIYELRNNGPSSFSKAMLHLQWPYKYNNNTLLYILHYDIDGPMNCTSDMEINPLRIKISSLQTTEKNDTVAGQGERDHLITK
T1 sequence (P06756 891-1048 partner limits assumed): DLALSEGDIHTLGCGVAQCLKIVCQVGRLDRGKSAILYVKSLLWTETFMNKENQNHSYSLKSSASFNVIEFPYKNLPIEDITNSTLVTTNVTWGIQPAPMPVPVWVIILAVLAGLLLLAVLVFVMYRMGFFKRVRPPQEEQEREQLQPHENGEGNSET
T1 sequence (P05106 27-788): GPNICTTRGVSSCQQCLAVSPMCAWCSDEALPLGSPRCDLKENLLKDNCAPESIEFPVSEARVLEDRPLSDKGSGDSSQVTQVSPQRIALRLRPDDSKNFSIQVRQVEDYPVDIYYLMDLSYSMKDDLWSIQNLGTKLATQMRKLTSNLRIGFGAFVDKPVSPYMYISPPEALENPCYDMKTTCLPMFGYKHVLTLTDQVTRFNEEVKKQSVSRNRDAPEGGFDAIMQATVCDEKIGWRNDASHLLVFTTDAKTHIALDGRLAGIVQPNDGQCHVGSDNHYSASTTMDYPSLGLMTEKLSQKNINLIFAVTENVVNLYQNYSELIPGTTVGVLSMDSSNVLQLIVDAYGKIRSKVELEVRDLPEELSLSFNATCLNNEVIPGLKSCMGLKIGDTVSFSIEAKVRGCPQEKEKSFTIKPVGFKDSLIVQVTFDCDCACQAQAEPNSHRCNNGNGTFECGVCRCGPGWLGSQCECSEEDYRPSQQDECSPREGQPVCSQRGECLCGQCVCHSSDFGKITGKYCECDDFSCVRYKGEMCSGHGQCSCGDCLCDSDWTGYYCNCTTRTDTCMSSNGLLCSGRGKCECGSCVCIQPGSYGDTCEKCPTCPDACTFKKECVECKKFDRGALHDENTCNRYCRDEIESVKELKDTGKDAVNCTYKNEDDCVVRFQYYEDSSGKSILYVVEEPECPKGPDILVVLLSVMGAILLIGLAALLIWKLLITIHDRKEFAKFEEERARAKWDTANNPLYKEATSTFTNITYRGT
T2 sequence (P08514 32-887 limits assumed): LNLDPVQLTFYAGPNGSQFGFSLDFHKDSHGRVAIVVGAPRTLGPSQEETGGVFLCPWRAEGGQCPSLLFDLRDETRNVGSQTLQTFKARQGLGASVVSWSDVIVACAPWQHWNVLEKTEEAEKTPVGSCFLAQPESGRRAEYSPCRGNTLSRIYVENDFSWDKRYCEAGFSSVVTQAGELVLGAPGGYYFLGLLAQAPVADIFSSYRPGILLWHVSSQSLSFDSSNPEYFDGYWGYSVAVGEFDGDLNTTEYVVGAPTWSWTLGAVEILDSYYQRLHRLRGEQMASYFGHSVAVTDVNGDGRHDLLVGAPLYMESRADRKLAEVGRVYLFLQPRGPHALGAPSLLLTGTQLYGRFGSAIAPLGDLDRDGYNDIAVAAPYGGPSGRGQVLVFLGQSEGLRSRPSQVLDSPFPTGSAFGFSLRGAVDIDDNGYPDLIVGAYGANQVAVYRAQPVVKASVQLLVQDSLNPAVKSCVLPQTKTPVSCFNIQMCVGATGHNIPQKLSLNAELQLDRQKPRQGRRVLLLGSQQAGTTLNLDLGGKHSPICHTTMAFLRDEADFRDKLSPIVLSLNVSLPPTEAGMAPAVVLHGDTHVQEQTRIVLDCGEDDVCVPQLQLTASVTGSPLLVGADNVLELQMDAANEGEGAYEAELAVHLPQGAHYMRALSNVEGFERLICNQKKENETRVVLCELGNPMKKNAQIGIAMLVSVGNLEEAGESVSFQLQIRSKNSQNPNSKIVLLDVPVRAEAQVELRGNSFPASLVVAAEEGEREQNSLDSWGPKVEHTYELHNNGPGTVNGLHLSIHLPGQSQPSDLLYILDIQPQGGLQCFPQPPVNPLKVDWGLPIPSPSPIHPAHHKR
T2 sequence (P08514 891-1039 partner limits assumed): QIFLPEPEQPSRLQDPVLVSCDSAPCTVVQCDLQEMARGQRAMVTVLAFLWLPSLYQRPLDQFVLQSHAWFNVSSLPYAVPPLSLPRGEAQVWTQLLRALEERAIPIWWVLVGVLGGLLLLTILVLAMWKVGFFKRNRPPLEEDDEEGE
T2 sequence (P05106 27-788): as the sequence (P05106 27-788) above

Regarding `Cl.Cl.N=C(N)c1ccc(N2CC(COc3ccc(CC(N)C(=O)O)cc3)OC2=O)cc1` (centres unmarked), the melting point was 165 °C (dec.).
Same read-out and setting: in the case of `CCCCS(=O)(=O)N[C@@H](Cc1ccc(OCCCCNC(=N)N)cc1)C(=O)O` [Compound 7] it was 70 °C.
With `CC(C)(C)OC(=O)N[C@@H](Cc1ccc(OCCCCNC(=N)N)cc1)C(=O)O` [Compound 9], in series [1], the “reducing the number of branch points of new blood vessels” value (from here on “reducing the number”) is recorded as “effective at reducing the number of branch points”.
`CCCCS(=O)(=O)N[C@H](Cc1ccc(OCCCCNC(=N)N)cc1)C(=O)O` [Compound 10] showed a melting point of 70 °C. Further, in series [1], the “inhibition of formation of new blood vessels induced by bFGF” value is “almost completely inhibited” and the “reducing the number” value is reported as “effective at reducing the number of branch points”.
As to `CC1(C)C2CCC1(CS(=O)(=O)N[C@@H](Cc1ccc(OCCCCNC(=N)N)cc1)C(=O)O)C(=O)C2` (some centres unmarked) [Compound 12], the “reducing the number” value in series [1] is “effective at reducing the number of branch points”.
Consider `CCCCS(=O)(=O)N[C@@H](Cc1ccc(OCCCCCNC(=N)N)cc1)C(=O)O` [Compound 14], for which, in series [1], the “inhibition of formation of new blood vessels induced by bFGF” value was “almost completely inhibited” and the “reducing the number” value is listed as “effective at reducing the number of branch points”.
Consider `CCCS(=O)(=O)NC(Cc1ccc(OCC2CN(c3ccc(C(=N)N)cc3)C(=O)O2)cc1)C(=O)O` (centres unmarked) [Compound 17, 3-(4-amidinophenyl)-5-(4-(2-carboxy-2-N-propyl-sulfonylaminoethyl)phenoxy)methyl-2-oxazolidinone], for which the “anti-angiogenic properties (branch points)” value in series [1] is given as “exhibited anti-angiogenic properties”.
The same measure, in the same setting: in the case of `CCS(=O)(=O)NC(Cc1ccc(OCC2CN(c3ccc(C(=N)N)cc3)C(=O)O2)cc1)C(=O)O` (centres unmarked) [Compound 18, 3-(4-amidinophenyl)-5-(4-(2-carboxy-2-N-ethyl-sulfonylaminoethyl)phenoxy)methyl-2-oxazolidinone] it was “exhibited anti-angiogenic properties”.
On to `CC(C)C[C@@H]1NC(=O)[C@@H](Cc2ccccc2)NC(=O)[C@H](CC(=O)O)NC(=O)CNC(=O)[C@H](CCCNC(=N)N)NC(=O)[C@H](C)NC1=O` [Peptide 62175, cyclo (ARGDfL)] (cyclo(ARGD[dF]L)), for which the “preference of inhibition of fibrinogen binding, αvβ3 versus αIIbβ3” value (“preference of inhibition … αvβ3 versus αIIbβ3” for short) on αvβ3 is “either not as effective in blocking fibrinogen binding to αvβ3 or exhibited preferential inhibition of fibrinogen binding to αIIbβ3”. Besides, the half-inhibitory concentration (IC50) on αvβ3 (setting [2]) was 1.05 ± 0.07 µM; on αIIbβ3 (setting [3]), 0.63 ± 0.18 µM.
For `CC(C)C[C@@H]1NC(=O)[C@@H](Cc2ccccc2)NC(=O)[C@H](CC(=O)O)NC(=O)CNC(=O)[C@H](CCCNC(=N)N)NC(=O)CNC1=O` [Peptide 62179, cyclo (GRGDfL)] (cyclo(GRGD[dF]L)), the “preference of inhibition … αvβ3 versus αIIbβ3” value at αvβ3 was “either not as effective in blocking fibrinogen binding to αvβ3 or exhibited preferential inhibition of fibrinogen binding to αIIbβ3”. Also, the IC50 at αvβ3 (setting [2]) came out at 0.395 ± 0.21 µM; at αIIbβ3 (setting [3]), 0.055 ± 0.007 µM.
The matching figures for `CC(C)[C@@H]1NC(=O)[C@H](Cc2ccccc2)NC(=O)[C@H](CC(=O)O)NC(=O)CNC(=O)[C@@H](CCCNC(=N)N)NC(=O)CNC1=O` [Peptide 62181, cyclo (GrGDFV)] (cyclo(G[dR]GDFV)): “preferential inhibition of fibrinogen binding to the αvβ3 receptor”, 1.96 ± 0.62 µM and 15 ± 7.84 µM.
For the molecule `CC(C)[C@@H]1NC(=O)[C@@H](Cc2ccccc2)NC(=O)[C@H](CC(=O)O)NC(=O)[C@H](C)NC(=O)[C@H](CCCN=C(N)N)NC1=O` [Peptide 62185, cyclo (RADfV)] (cyclo(AD[dF]VR)), the half-maximal inhibitory concentration (IC50) was determined as 0.885 ± 0.16 µM on αvβ3 (setting [2]) and 100 ± 0.001 µM at αIIbβ3 (setting [3]).
In the case of `CC(C)[C@@H]1NC(=O)[C@@H](Cc2ccccc2)NC(=O)[C@H](CC(=O)O)NC(=O)[C@H](C)NC(=O)[C@H](CCCNC(=N)N)NC1=O` [Peptide 62185, cyclo (RADfV)] (cyclo(RAD[dF]V)), the “preference of inhibition … αvβ3 versus αIIbβ3” value at αvβ3 was “preferential inhibition of fibrinogen binding to the αvβ3 receptor”.
Take `CSCC[C@H](NC(=O)[C@@H]1CCCN1C(=O)[C@H](CC(N)=O)NC(=O)CNC(=O)[C@H](CC(C)C)NC(=O)[C@H](CC(=O)O)NC(=O)[C@H](CS)NC(=O)[C@@H](NC(=O)[C@@H](NC(=O)[C@H](CCC(N)=O)NC(=O)[C@H](CCCNC(=N)N)NC(=O)[C@@H](N)[C@@H](C)O)C(C)C)C(C)C)C(=O)O` [Peptide 62411] (H-TRQVVCDLGNPM-OH): the IC50 was more than 100 µM on αvβ3; more than 100 µM at αIIbβ3; more than 100 µM on αIIbβ3 (read-out: αIIbβ3 IC50 (μM) VN, vitronectin, individual assay).
Turning to `CC(C)C[C@H](NC(=O)[C@H](C)NC(=O)[C@H](CCC(=O)O)NC(=O)[C@H](CC(N)=O)NC(=O)[C@H](CC(N)=O)NC(=O)[C@H](CCCNC(=N)N)NC(=O)[C@@H](NC(=O)[C@@H](NC(=O)CN)C(C)C)C(C)C)C(=O)N[C@@H](C)C(=O)N[C@@H](CCCNC(=N)N)C(=O)N[C@@H](CC(C)C)C(=O)N[C@@H](CO)C(=O)O` [Peptide 62503] (H-GVVRNNEALARLS-OH), the half-maximal inhibitory concentration (IC50) was more than 100 µM on αvβ3 (fibrinogen, individual assay, read-out: αvβ3 IC50 (μM) FG); more than 100 µM at αIIbβ3 (fibrinogen, individual assay, read-out: αIIbβ3 IC50 (μM) FG); more than 100 µM on αIIbβ3 (vitronectin, individual assay, read-out: αIIbβ3 IC50 (μM) VN).
